Earlier results as cited in patent publication US9353185B2, “Antibodies” (Affitech Research AS, priority 2010, dated 2016).

Legend:
[1] = tested on: Th2-mediated inflammatory response; conditions: Hu et al, 2006; cited from earlier work
X4 HIV strains = conditions: in vitro and in vivo in clinical trials in humans; cited from earlier work
[2] = tested on: acute myeloid leukaemia (AML); conditions: Mozobil pre-conditioning prior to MEC chemotherapy; patients available for first follow-up evaluation; cited from earlier work
[3] = tested on: AML and lymphoma tumor xenograft models; conditions: multiple AML and lymphoma tumor xenograft models; cited from earlier work
[4] = tested on: CXCR4 expressing cell lines; conditions: range of CXCR4 expressing cell lines; cited from earlier work

In the case of `c1ccc(CNCc2ccc(CN3CCCNCCNCCCNCC3)cc2)nc1` [AMD3465], the “effect on Th2-mediated inflammatory response” value [1] is given as “abrogate the Th2-mediated inflammatory response”.

For `c1cc(CN2CCCNCCNCCCNCC2)ccc1CN1CCCNCCNCCCNCC1` [AMD3100, plerixafor], the “inhibition of entry of X4 HIV strains” value (X4 HIV strains) is given as “very high efficacy” and the “complete remission (CR or CRi)” value [2] is given as 50% of patients.

In the case of “MDX-1338: anti-human CXCR4-specific, fully human monoclonal antibody from Medarex; an IgG4”, the anti-tumor activity [3] is given as “has anti-tumor activity” and the induction of apoptosis [4] is given as “induces apoptosis”.
